Source: ChEMBL document CHEMBL5321196, “Fluorescent and theranostic probes for imaging nicotinamide phosphoribosyl transferase (NAMPT)” (Eur J Med Chem, 2023)

Columns and labels:
[1] = molecular target: T1, Nicotinamide phosphoribosyltransferase (Homo sapiens, UniProt P43490); assay: Inhibition of NAMPT in human A2780 cells measured at 6 hrs
[2] = molecular target: T1, Nicotinamide phosphoribosyltransferase; assay: Inhibition of NAMPT in human A2780 cells measured at 24 hrs
[3] = molecular target: T1, Nicotinamide phosphoribosyltransferase; assay: Inhibition of NAMPT in human A2780 cells measured at 48 hrs

T1 sequence (P43490 whole entry): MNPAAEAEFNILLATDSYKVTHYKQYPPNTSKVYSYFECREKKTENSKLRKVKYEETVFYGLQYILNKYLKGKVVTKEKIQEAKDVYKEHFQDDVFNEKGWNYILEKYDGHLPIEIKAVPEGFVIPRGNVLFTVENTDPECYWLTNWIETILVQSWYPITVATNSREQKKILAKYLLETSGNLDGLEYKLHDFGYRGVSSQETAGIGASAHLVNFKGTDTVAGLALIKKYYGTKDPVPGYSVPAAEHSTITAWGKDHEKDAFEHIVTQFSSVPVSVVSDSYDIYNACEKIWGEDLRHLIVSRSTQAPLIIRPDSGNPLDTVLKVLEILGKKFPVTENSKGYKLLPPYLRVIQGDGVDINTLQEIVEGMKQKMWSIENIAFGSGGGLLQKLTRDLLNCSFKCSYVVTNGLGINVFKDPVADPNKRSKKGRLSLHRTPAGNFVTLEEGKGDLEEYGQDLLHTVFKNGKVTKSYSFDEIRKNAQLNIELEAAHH

IC50 [1]: > 10 µM | IC50 [2]: 7.18 µM | IC50 [3]: 4.05 µM
SMILES: O=S(=O)(c1ccc(NC(=S)NCc2cccnc2)cc1)N1CCNCC1
